Test results: US6737383B1, “Herbicidal oxadiazolidines” (priority 1999, dated 2004)

Key:
bedstraw = test: Test B pre/postemergence bedstraw; type: in vivo, Galium aparine
Outline: (§1)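 Test chemicals in a non-phytotoxic solvent mixture with surfactant were sprayed preemergence onto planted seeds and postemergence onto plants 2 to 18 cm tall (1- to 4-leaf stage). After twelve to sixteen days in a greenhouse, injury was visually rated against untreated controls from 0 (no effect) to 10 (complete control).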

blackgrass = test: Test B pre/postemergence blackgrass; type: in vivo, Alopecurus myosuroides
Outline: as §1

surinam grass = test: Test B pre/postemergence surinam grass; type: in vivo, Brachiaria decumbens
Outline: as §1

cocklebur = test: Test B pre/postemergence cocklebur; type: in vivo, Xanthium strumarium
Outline: as §1

corn = test: Test B pre/postemergence corn; type: in vivo, Zea mays
Outline: as §1

crabgrass = test: Test B pre/postemergence crabgrass; type: in vivo, Digitaria sanguinalis
Outline: as §1

giant foxtail = test: Test B pre/postemergence giant foxtail; type: in vivo, Setaria faberii
Outline: as §1

morningglory = test: Test B pre/postemergence morningglory; type: in vivo, Ipomoea hederacea
Outline: as §1

velvetleaf = test: Test B pre/postemergence velvetleaf; type: in vivo, Abutilon theophrasti
Outline: as §1

wheat = test: Test B pre/postemergence wheat; type: in vivo, Triticum aestivum
Outline: as §1

wild oat = test: Test B pre/postemergence wild oat; type: in vivo, Avena fatua
Outline: as §1

purple nutsedge = test: Test B pre/postemergence purple nutsedge; type: in vivo, Cyperus rotundus
Outline: as §1

rice = test: Test B flood test rice; type: in vivo, Oryza sativa
Outline: (§2)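 Plants were grown to the 2-leaf stage before treatment with test chemical, then held in a greenhouse for twelve to sixteen days. Injury was visually rated against untreated controls on a 0–10 scale, where 0 is no effect and 10 is complete control.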

smallflower flatsedge = test: Test B flood test smallflower flatsedge; type: in vivo, Cyperus difformis
Outline: as §2

duck salad = test: Test B flood test duck salad; type: in vivo, Heteranthera limosa
Outline: as §2

bamyardgrass = test: Test B flood test barnyardgrass; type: in vivo, Echinochloa crus-galli
Outline: as §2

[1] = Preemergence, Rate 62 g/ha, scale of 0 to 10 where 0 is no effect and 10 is complete control
[2] = Preemergence, Rate 250 g/ha, scale of 0 to 10 where 0 is no effect and 10 is complete control
[3] = Preemergence, Rate 500 g/ha, scale of 0 to 10 where 0 is no effect and 10 is complete control
[4] = Rate 62 g/ha, Postemergence, scale of 0 to 10 where 0 is no effect and 10 is complete control
[5] = Rate 125 g/ha, Postemergence, scale 0 to 10
[6] = Rate 125 g/ha, Preemergence, scale of 0 to 10 where 0 is no effect and 10 is complete control
[7] = Rate 500 g/ha, Postemergence, scale 0 to 10, 0 no effect, 10 complete control
[8] = Rate 62 g/ha, headed Pre-emergence (flood test species), scale 0 to 10 (0 no effect, 10 complete control)
[9] = Rate 125 g/ha, Pre-emergence, flood test species, scale 0 to 10 where 0 is no effect and 10 is complete control
[10] = Rate 250 g/ha, Pre-emergence, flood-test species, scale 0 to 10, 0 is no effect, 10 is complete control
[11] = Rate 500 g/ha, Pre-emergence, flood test species, scale 0 to 10 (0 no effect, 10 complete control)

## Cc1cc(C)c(-n2c(=O)on(C(=O)N(c3ccc(F)cc3)C(C)C)c2=O)c(Br)c1 [Compound 224]
bedstraw; [1]
  Bedstraw plant response rating: 0
bedstraw; [2]
  Bedstraw plant response rating: 0
bedstraw; [3]
  Plant response rating, Bedstraw: 0
bedstraw; [4]
  Bedstraw plant response rating: 3
bedstraw; [5]
  Bedstraw plant response rating: 3
bedstraw; [6]
  Bedstraw plant response rating: 0
bedstraw; Rate 250 g/ha, Postemergence
  Plant response rating (0 to 10; 0 is no effect, 10 is complete control), Bedstraw: 4
bedstraw; [7]
  Bedstraw plant response rating: 4
blackgrass; [1]
  Blackgrass plant response rating: 2
blackgrass; [2]
  Blackgrass plant response rating: 3
blackgrass; [3]
  Plant response rating, Blackgrass: 5
blackgrass; [4]
  Blackgrass plant response rating: 0
blackgrass; [5]
  Blackgrass plant response rating: 0
blackgrass; [6]
  Blackgrass plant response rating: 2
blackgrass; Rate 250 g/ha, Postemergence
  Plant response rating (0 to 10; 0 is no effect, 10 is complete control), Blackgrass: 3
blackgrass; [7]
  Blackgrass plant response rating: 4
Surinam grass; [1]
  B. signalgrass plant response rating: 0
Surinam grass; Preemergence, Rate 250 g/ha, scale 0 to 10, 0 is no effect, 10 is complete control
  B. signalgrass plant response rating: 4
Surinam grass; [3]
  Plant response rating, B. signalgrass: 4
Surinam grass; [4]
  B. signalgrass plant response rating: 0
Surinam grass; Rate 125 g/ha, Postemergence, scale 0 (no effect) to 10 (complete control)
  B. signalgrass plant response rating: 0
Surinam grass; [6]
  B. signalgrass plant response rating: 3
Surinam grass; Rate 250 g/ha, Postemergence
  Plant response rating (0 to 10; 0 is no effect, 10 is complete control), B. signalgrass: 0
Surinam grass; [7]
  B. signalgrass plant response rating: 0
cocklebur; [1]
  Cocklebur plant response rating: 0
cocklebur; [2]
  Cocklebur plant response rating: 0
cocklebur; [3]
  Plant response rating, Cocklebur: 0
cocklebur; [4]
  Cocklebur plant response rating: 0
cocklebur; [5]
  Cocklebur plant response rating: 0
cocklebur; [6]
  Cocklebur plant response rating: 0
cocklebur; Rate 250 g/ha, Postemergence
  Plant response rating (0 to 10; 0 is no effect, 10 is complete control), Cocklebur: 0
cocklebur; [7]
  Cocklebur plant response rating: 1
corn; [1]
  Corn plant response rating: 0
corn; [2]
  Corn plant response rating: 0
corn; [3]
  Plant response rating, Corn: 0
corn; [4]
  Corn plant response rating: 0
corn; [5]
  Corn plant response rating: 0
corn; [6]
  Corn plant response rating: 0
corn; Rate 250 g/ha, Postemergence
  Plant response rating (0 to 10; 0 is no effect, 10 is complete control), Corn: 0
corn; [7]
  Corn plant response rating: 0
crabgrass; [1]
  Crabgrass plant response rating: 2
crabgrass; [2]
  Crabgrass plant response rating: 9
crabgrass; [3]
  Plant response rating, Crabgrass: 10
crabgrass; [4]
  Crabgrass plant response rating: 0
crabgrass; [5]
  Crabgrass plant response rating: 0
crabgrass; [6]
  Crabgrass plant response rating: 5
crabgrass; Rate 250 g/ha, Postemergence
  Plant response rating (0 to 10; 0 is no effect, 10 is complete control), Crabgrass: 3
crabgrass; [7]
  Crabgrass plant response rating: 0
Giant foxtail; [1]
  Giant foxtail plant response rating: 3
Giant foxtail; [2]
  Giant foxtail plant response rating: 9
Giant foxtail; [3]
  Plant response rating, Giant foxtail: 10
Giant foxtail; [4]
  Giant foxtail plant response rating: 0
Giant foxtail; [5]
  Giant foxtail plant response rating: 0
Giant foxtail; [6]
  Giant foxtail plant response rating: 7
Giant foxtail; Rate 250 g/ha, Postemergence
  Plant response rating (0 to 10; 0 is no effect, 10 is complete control), Giant foxtail: 4
Giant foxtail; [7]
  Giant foxtail plant response rating: 0
morningglory; [1]
  Morningglory plant response rating: 0
morningglory; [2]
  Morningglory plant response rating: 0
morningglory; [3]
  Plant response rating, Morningglory: 0
morningglory; [4]
  Morningglory plant response rating: 2
morningglory; [5]
  Morningglory plant response rating: 2
morningglory; [6]
  Morningglory plant response rating: 0
morningglory; Rate 250 g/ha, Postemergence
  Plant response rating (0 to 10; 0 is no effect, 10 is complete control), Morningglory: 5
morningglory; [7]
  Morningglory plant response rating: 6
velvetleaf; [1]
  Velvetleaf plant response rating: 0
velvetleaf; [2]
  Velvetleaf plant response rating: 0
velvetleaf; [3]
  Plant response rating, Velvetleaf: 0
velvetleaf; [4]
  Velvetleaf plant response rating: 0
velvetleaf; [5]
  Velvetleaf plant response rating: 0
velvetleaf; [6]
  Velvetleaf plant response rating: 0
velvetleaf; Rate 250 g/ha, Postemergence
  Plant response rating (0 to 10; 0 is no effect, 10 is complete control), Velvetleaf: 0
velvetleaf; [7]
  Velvetleaf plant response rating: 4
wheat; [1]
  Wheat plant response rating: 0
wheat; [2]
  Wheat plant response rating: 0
wheat; [3]
  Plant response rating, Wheat: 0
wheat; [4]
  Wheat plant response rating: 0
wheat; [5]
  Wheat plant response rating: 0
wheat; [6]
  Wheat plant response rating: 0
wheat; Rate 250 g/ha, Postemergence
  Plant response rating (0 to 10; 0 is no effect, 10 is complete control), Wheat: 0
wheat; [7]
  Wheat plant response rating: 0
Wild oat; [1]
  Wild oats plant response rating: 0
Wild oat; [2]
  Wild oats plant response rating: 0
Wild oat; [3]
  Plant response rating, Wild oats: 2
Wild oat; [4]
  Wild oats plant response rating: 0
Wild oat; [5]
  Wild oats plant response rating: 0
Wild oat; [6]
  Wild oats plant response rating: 0
Wild oat; Rate 250 g/ha, Postemergence
  Plant response rating (0 to 10; 0 is no effect, 10 is complete control), Wild oats: 0
Wild oat; [7]
  Wild oats plant response rating: 0
Purple nutsedge; [1]
  Nutsedge plant response rating: 0
Purple nutsedge; [4]
  Nutsedge plant response rating: 0
Purple nutsedge; [5]
  Nutsedge plant response rating: 0
Purple nutsedge; Rate 250 g/ha, Postemergence
  Plant response rating (0 to 10; 0 is no effect, 10 is complete control), Nutsedge: 0
Purple nutsedge; [7]
  Nutsedge plant response rating: 0
rice; [8]
  Rice plant response rating: 0
rice; [9]
  Rice plant response rating: 0
rice; [10]
  Rice plant response rating: 0
rice; [11]
  Rice plant response rating: 0
Smallflower flatsedge; [8]
  S. Flatsedge plant response rating: 0
Smallflower flatsedge; [9]
  S. Flatsedge plant response rating: 0
Smallflower flatsedge; [10]
  S. Flatsedge plant response rating: 0
Smallflower flatsedge; [11]
  S. Flatsedge plant response rating: 0
Duck salad; [8]
  Ducksalad plant response rating: 0
Duck salad; [9]
  Ducksalad plant response rating: 0
Duck salad; [10]
  Ducksalad plant response rating: 0
Duck salad; [11]
  Ducksalad plant response rating: 0
bamyardgrass; [8]
  Barnyardgrass plant response rating: 0
bamyardgrass; [9]
  Barnyardgrass plant response rating: 0
bamyardgrass; [10]
  Barnyardgrass plant response rating: 0
bamyardgrass; [11]
  Barnyardgrass plant response rating: 0
